Data on 20 compounds can be found in patent US20080114007A1 (priority 2006, published 2008).

A value given as a limit tells only on which side of the number the result lay.

This assay deals with CSF-1R (Homo sapiens, UniProt P07333). In words: Peptide (non-phosphorylated) assay, fluorescence polarization competition immunoassay. Format: biochemical. The following applies: 0.7 nM CSF-1R, 308 μM SYEGNSYTFIDPTQ peptide, 1 mM ATP, 80 min; mean of at least three determinations; read-out: c-fms Peptide IC50. Here is the method: The kinase reaction was initiated by adding 1 μL of 10 mM ATP in assay buffer. […] Positive and negative control wells were included on each plate, where 4% DMSO in assay buffer was substituted for the compound; in addition, positive control wells received 1.2 μL of 50 mM EDTA before the start of the reaction.
Chain of CSF-1R (P07333 20-972): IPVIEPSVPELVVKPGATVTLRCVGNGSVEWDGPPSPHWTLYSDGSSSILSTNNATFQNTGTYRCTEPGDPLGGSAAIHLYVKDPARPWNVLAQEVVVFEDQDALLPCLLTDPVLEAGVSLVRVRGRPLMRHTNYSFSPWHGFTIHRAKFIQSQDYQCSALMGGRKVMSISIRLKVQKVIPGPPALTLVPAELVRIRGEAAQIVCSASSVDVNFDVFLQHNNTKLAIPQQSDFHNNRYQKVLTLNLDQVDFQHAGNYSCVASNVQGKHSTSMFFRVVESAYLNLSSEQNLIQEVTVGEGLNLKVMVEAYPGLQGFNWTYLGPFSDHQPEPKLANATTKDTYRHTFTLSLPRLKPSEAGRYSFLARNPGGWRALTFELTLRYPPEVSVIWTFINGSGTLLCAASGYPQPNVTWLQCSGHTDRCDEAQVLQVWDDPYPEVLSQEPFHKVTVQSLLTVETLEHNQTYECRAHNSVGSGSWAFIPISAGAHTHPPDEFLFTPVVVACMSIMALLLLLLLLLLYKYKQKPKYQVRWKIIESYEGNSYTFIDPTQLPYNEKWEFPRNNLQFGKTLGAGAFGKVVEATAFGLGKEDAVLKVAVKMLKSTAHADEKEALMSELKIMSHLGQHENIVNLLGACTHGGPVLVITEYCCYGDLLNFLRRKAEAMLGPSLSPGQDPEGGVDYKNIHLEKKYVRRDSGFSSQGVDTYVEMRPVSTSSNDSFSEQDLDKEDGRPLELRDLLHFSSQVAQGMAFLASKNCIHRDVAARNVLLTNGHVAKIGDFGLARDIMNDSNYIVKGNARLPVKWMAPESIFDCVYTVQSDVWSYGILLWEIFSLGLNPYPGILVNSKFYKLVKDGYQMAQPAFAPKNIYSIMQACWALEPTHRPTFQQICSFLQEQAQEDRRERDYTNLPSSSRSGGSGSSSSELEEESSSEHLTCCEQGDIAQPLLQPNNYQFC
The plates were covered and incubated at room temperature for 80 min. Reactions were stopped by addition of 1.2 μL of 50 mM EDTA. Each well then received 10 μL of a 1:1:3 mixture of 10× anti-phosphotyrosine antibody, 10×PTK green tracer, and FP dilution buffer, respectively (Cat. # P2837, Invitrogen, Carlsbad, Calif.). The plates were covered, incubated for 30 min at room temperature, and the fluorescence polarization was read on an Analyst plate reader (Molecular Devices).
`CONC(=O)c1cn(-c2ccc3c(c2)CCC3)c2nc(Nc3ccc(CCN4CCN(S(C)(=O)=O)CC4)cc3)ncc2c1=O` [Cpd 146, 8-indan-5-yl-2-{4-[2-(4-methanesulfonyl-piperazin-1-yl)-ethyl]-phenylamino}-5-oxo-5,8-dihydro-pyrido[2,3-d]pyrimidine-6-carboxylic acid methoxy-amide]: the IC50 is 1.2 nM.
Consider `CONC(=O)c1cn(-c2ccc3c(c2)CCC3)c2nc(Nc3cccc(N4CCN(S(=O)(=O)C(F)(F)F)CC4)c3)ncc2c1=O` [Cpd 202, 8-indan-5-yl-5-oxo-2-[3-(4-trifluoromethanesulfonyl-piperazin-1-yl)-phenylamino]-5,8-dihydro-pyrido[2,3-d]pyrimidine-6-carboxylic acid methoxy-amide], for which the IC50 came to 68 nM.
Consider `CONC(=O)c1cn(C2CCCC2)c2nc(Nc3ccc(C4CCNCC4)cc3)ncc2c1=O` [Cpd 45, 8-cyclopentyl-5-oxo-2-(4-piperidin-4-yl-phenylamino)-5,8-dihydro-pyrido[2,3-d]pyrimidine-6-carboxylic acid methoxy-amide], for which the half-maximal inhibitory concentration (IC50) was 1.9 nM.
On to `CCc1ccc(-n2cc(C(=O)NOC)c(=O)c3cnc(Nc4ccc(O[C@@H]5O[C@H](CO)[C@@H](O)[C@H](O)[C@@H]5O)cc4)nc32)cc1` [Cpd 296, 8-(4-ethyl-phenyl)-5-oxo-2-{4-[(2S,3S,4S,5S,6R)(3,4,5-trihydroxy-6-hydroxymethyl-tetrahydro-pyran-2-yloxy)]-phenylamino}-5,8-dihydro-pyrido[2,3-d]pyrimidine-6-carboxylic acid methoxy-amide], for which the IC50 turned out to be 0.8 nM.
As to `CONC(=O)c1cn(-c2ccc3c(c2)CCC3)c2nc(Nc3ccc(CCN4CC(F)(F)C4)cc3)ncc2c1=O` [Cpd 270, 2-{4-[2-(3,3-difluoro-azetidin-1-yl)-ethyl]-phenylamino}-8-indan-5-yl-5-oxo-5,8-dihydro-pyrido[2,3-d]pyrimidine-6-carboxylic acid methoxy-amide], the half-maximal inhibitory concentration (IC50) came out at 1.6 nM.
For the compound `CCc1ccc(-n2cc(C(=O)NOC)c(=O)c3cnc(Nc4ccc(OC5CN6CCC5CC6)cc4)nc32)cc1` (centres unmarked) [Cpd 268, 2-[4-(1-aza-bicyclo[2.2.2]oct-3-yloxy)-phenylamino]-8-(4-ethyl-phenyl)-5-oxo-5,8-dihydro-pyrido[2,3-d]pyrimidine-6-carboxylic acid methoxy-amide], the concentration for half-maximal inhibition (IC50) was found to be 0.4 nM.
Then `CCc1ccc(-n2cc(C(=O)NOC)c(=O)c3cnc(Nc4ccc(CC(=O)NN(C)C)cc4)nc32)cc1` [Cpd 105, 2-[4-(N′,N′-dimethyl-hydrazinocarbonylmethyl)-phenylamino]-8-(4-ethyl-phenyl)-5-oxo-5,8-dihydro-pyrido[2,3-d]pyrimidine-6-carboxylic acid methoxy-amide], with 1.4 nM.
Consider `CONC(=O)c1cn(-c2ccc3c(c2)CCC3)c2nc(Nc3ccc(CCO)cc3)ncc2c1=O` [Cpd 79, 2-[4-(2-hydroxy-ethyl)-phenylamino]-8-indan-5-yl-5-oxo-5,8-dihydro-pyrido[2,3-d]pyrimidine-6-carboxylic acid methoxy-amide], for which the IC50 was 0.87 nM.
Then `CNS(=O)(=O)CCc1ccc(Nc2ncc3c(=O)c(C(=O)NOC)cn(-c4ccc5c(c4)CCC5)c3n2)cc1` [Cpd 89, 8-indan-5-yl-2-[4-(2-methylsulfamoyl-ethyl)-phenylamino]-5-oxo-5,8-dihydro-pyrido[2,3-d]pyrimidine-6-carboxylic acid methoxy-amide], with 1.4 nM; and `CCc1ccc(-n2cc(C(=O)NOC)c(=O)c3cnc(Nc4ccc(CC(=O)O)cc4)nc32)cc1` [Cpd 103, {4-[8-(4-ethyl-phenyl)-6-methoxycarbamoyl-5-oxo-5,8-dihydro-pyrido[2,3-d]pyrimidin-2-ylamino]-phenyl}-acetic acid], with 7.2 nM; and `CONC(=O)c1cn(-c2ccc3c(c2)CCC3)c2nc(Nc3ccc(C4=CCN(C)CC4)cc3)ncc2c1=O` [Cpd 235, 8-indan-5-yl-2-[4-(1-methyl-1,2,3,6-tetrahydro-pyridin-4-yl)-phenylamino]-5-oxo-5,8-dihydro-pyrido[2,3-d]pyrimidine-6-carboxylic acid methoxy-amide], with 0.54 nM.
Then `CONC(=O)c1cn(C2CCCCC2)c2nc(Nc3ccc(C(=O)N4CCCC4)cc3)ncc2c1=O` [Cpd 11, 8-cyclohexyl-5-oxo-2-[4-(pyrrolidine-1-carbonyl)-phenylamino]-5,8-dihydro-pyrido[2,3-d]pyrimidine-6-carboxylic acid methoxy-amide], with more than 300 nM; and `CONC(=O)c1cn(-c2ccc(OC(F)(F)F)cc2)c2nc(Nc3ccc(CCN4CCN(C)CC4)cc3)ncc2c1=O` [Cpd 175, 2-{4-[2-(4-methylpiperazin-1-yl)-ethyl]-phenylamino}-5-oxo-8-(4-trifluoromethoxy-phenyl)-5,8-dihydropyrido[2,3-d]pyrimidine-6-carboxylic acid methoxy-amide], with 1 nM.
As for `CCc1ccc(-n2cc(C(=O)NOC)c(=O)c3cnc(Nc4ccc5cn[nH]c5c4)nc32)cc1` [Cpd 288, 8-(4-ethyl-phenyl)-2-(1H-indazol-6-ylamino)-5-oxo-5,8-dihydro-pyrido[2,3-d]pyrimidine-6-carboxylic acid methoxy-amide], the IC50 was 1.5 nM.
Regarding `CONC(=O)c1cn(-c2ccc3c(c2)CCC3)c2nc(Nc3ccc([C@@]4(O)CCN(C)C[C@@H]4O)cc3)ncc2c1=O` [Cpd 236, 2-{4-[(3S,4S)-(3,4-dihydroxy-1-methyl-piperidin-4-yl)]-phenylamino}-8-indan-5-yl-5-oxo-5,8-dihydro-pyrido[2,3-d]pyrimidine-6-carboxylic acid methoxy-amide], the IC50 turned out to be 0.47 nM.
In the case of `CONC(=O)c1cn(-c2ccc3c(c2)CCC3)c2nc(Nc3ccc(CCN(C)C4CCOCC4)cc3)ncc2c1=O` [Cpd 74, 8-indan-5-yl-2-(4-{2-[methyl-(tetrahydro-pyran-4-yl)-amino]-ethyl}-phenylamino)-5-oxo-5,8-dihydro-pyrido[2,3-d]pyrimidine-6-carboxylic acid methoxy-amide], the IC50 is 0.62 nM.
In the case of `CONC(=O)c1cn(-c2ccc3c(c2)CCC3)c2nc(Nc3cccc(CCN4CCN(C(C)=O)CC4)c3)ncc2c1=O` [Cpd 204, 2-{3-[2-(4-acetyl-piperazin-1-yl)-ethyl]-phenylamino}-8-indan-5-yl-5-oxo-5,8-dihydro-pyrido[2,3-d]pyrimidine-6-carboxylic acid methoxy-amide], the 50% inhibitory concentration (IC50) worked out at 1.2 nM.
Then `CCc1ccc(-n2cc(C(=O)NOC)c(=O)c3cnc(Nc4cccc(OC5CCN(CC)CC5)c4)nc32)cc1` [Cpd 322, 8-(4-ethyl-phenyl)-2-[3-(1-ethyl-piperidin-4-yloxy)-phenylamino]-5-oxo-5,8-dihydro-pyrido[2,3-d]pyrimidine-6-carboxylic acid methoxy-amide], with 0.8 nM; and `CCc1ccc(-n2cc(C(=O)NOC)c(=O)c3cnc(Nc4ccc(NCCS(C)(=O)=O)cc4)nc32)cc1` [Cpd 217, 8-(4-ethyl-phenyl)-2-[4-(2-methanesulfonyl-ethylamino)-phenylamino]-5-oxo-5,8-dihydro-pyrido[2,3-d]pyrimidine-6-carboxylic acid methoxy-amide], with 0.62 nM.
In the case of `CONC(=O)c1cn(-c2ccc3c(c2)CCC3)c2nc(Nc3ccc(CCN4CCCC4)cc3)ncc2c1=O` [Cpd 130, 8-indan-5-yl-5-oxo-2-[4-(2-pyrrolidin-1-yl-ethyl)-phenylamino]-5,8-dihydro-pyrido[2,3-d]pyrimidine-6-carboxylic acid methoxy-amide], the 50% inhibitory concentration (IC50) came to 1.6 nM.
